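All cell lines were grown in 96-well plates and treated with compound for 48 hours. GI50: concentration for 50% inhibition of growth. TGI: concentration producing complete growth inhibition.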
Experiments:
Test in all cases: DTP human tumour cell line panel, 48 h
[1] = system: RPMI-8226 leukemia
[2] = system: MDA-MB-435
[3] = system: UO-31 renal
[4] = system: DU-145 prostate
[5] = system: NCI-H23 lung
[6] = system: SF-295 CNS
[7] = system: OVCAR-5 ovarian
[8] = system: CCRF-CEM leukemia
[9] = system: NCI/ADR-RES ovarian
[10] = system: MCF7 breast

Structure (SMILES)	GI50 [1]	TGI [1]	GI50 [2]	TGI [2]	GI50 [3]	TGI [3]	GI50 [4]	TGI [4]	GI50 [5]	TGI [5]	GI50 [6]	TGI [6]	GI50 [7]	TGI [7]	GI50 [8]	TGI [8]	GI50 [9]	TGI [9]	GI50 [10]	TGI [10]
CC(=O)O[C@H]1CC[C@@]2(C)C(=CC[C@@H]3[C@@H]2CC[C@]2(C)C(c4cccnc4)=CC[C@@H]32)C1	2.81 µM	8.07 µM	3.03 µM	> 100 µM	5.47 µM	> 100 µM	22.3 µM	> 100 µM	6.6 µM	> 100 µM	2.33 µM	8.35 µM	18.7 µM	> 100 µM	16.7 µM	> 100 µM	3.99 µM	34.2 µM	4.84 µM	> 100 µM
O=c1[nH]nc(Cc2ccccc2)n1/N=C/c1c[nH]c2ccccc12		> 100 µM		> 100 µM		> 100 µM		> 100 µM		> 100 µM		> 100 µM		> 100 µM		> 100 µM		> 100 µM		> 100 µM
CCN1CC(C)Cn2c(=O)[nH]c3cc(Br)cc1c32 (stereo unspecified)		> 100 µM		9.74 µM		> 100 µM		> 100 µM		> 100 µM		> 100 µM		> 100 µM		> 100 µM		> 100 µM		87.4 µM
Cc1ccc(F)cc1NC(=O)O/N=C(\Cl)C(C)C		4 µM		32.2 µM		23.2 µM		33.5 µM		> 56.9 µM		> 61.1 µM		31.7 µM		> 39.5 µM		27.2 µM		20.8 µM
Oc1ccc(Cl)cc1C1=N/C(=N\CN2CCN(C/N=C3/N=C(c4cc(Cl)ccc4O)CC(c4ccccc4)N3)CC2)NC(c2ccccc2)C1 (stereo unspecified)		76.1 µM		> 100 µM		> 100 µM		> 100 µM		> 100 µM		91.7 µM		> 100 µM		> 100 µM		> 100 µM		> 100 µM
COc1ccc2c(c1)OC(c1cccnc1)C(c1ccccc1)C2=O (stereo unspecified)		> 100 µM		> 100 µM		> 100 µM		> 100 µM		> 100 µM		> 100 µM		> 100 µM		> 100 µM		> 100 µM		> 100 µM
Cn1ccnc1S/C(=C\C=C(C#N)C#N)c1ccc(Cl)cc1	19.2 µM	53.6 µM		2.45 µM		9.34 µM		10.9 µM		5.31 µM		11.3 µM		7.81 µM		> 11.2 µM		7.85 µM		2.62 µM
N#CC1=C2Sc3ccccc3N2[C@H](c2ccccc2)[C@H]2COC(=O)[C@@H]12		87.2 µM		> 100 µM		> 100 µM		> 100 µM		> 100 µM		> 100 µM		> 100 µM		30.7 µM		> 100 µM		> 100 µM
CC(=O)Oc1ccc(/C=C/C(=O)O[C@@H](C)[C@H](C)OC(=O)/C=C/c2ccc(OC(C)=O)c(OC(C)=O)c2)cc1OC(C)=O		39.1 µM		> 100 µM		> 100 µM		> 100 µM		25.8 µM		39.3 µM		58.8 µM		42.3 µM		> 100 µM		> 100 µM
Cc1ccc2c(=O)cc(-c3csc4ccccc34)[nH]c2n1		15 µM		< 0.01 µM		2.14 µM		1.09 µM		2.51 µM		0.0101 µM		6.47 µM		1.59 µM		0.569 µM		18.1 µM
CCC1C(=O)C[C@H]2[C@@H]3C(O)CC4=CC(=O)CC[C@]4(C)[C@H]3CC[C@]12C (stereo partly specified)		> 50 µM		> 50 µM		> 50 µM		> 50 µM		> 50 µM		> 50 µM		> 50 µM		> 50 µM		> 50 µM		> 50 µM
Brc1ccc(N=NN2CCCCC2)cc1		30.9 µM		> 100 µM		> 100 µM		> 100 µM		> 100 µM		> 100 µM		> 100 µM		56.9 µM		> 100 µM		> 100 µM
NCCC(N)C(=O)O (stereo unspecified)		> 100 µM		> 100 µM		> 100 µM		> 100 µM		> 100 µM		> 100 µM		> 100 µM		> 100 µM		> 100 µM		> 100 µM
CN1CC2=C(OC(N)=C(C#N)C2c2cccs2)/C(=C/c2cccs2)C1 (stereo unspecified)		> 42.7 µM		22.5 µM		> 84.8 µM		81.7 µM		> 100 µM		> 100 µM		> 100 µM		> 29 µM		23.6 µM		8.33 µM
CC(C)(CN)CN		> 100 µM		> 100 µM		> 100 µM		> 100 µM		> 100 µM		> 100 µM		> 100 µM		> 100 µM		> 100 µM		> 100 µM
COc1ccc2nc3cc(Cl)ccc3c(NCCCCCC(=O)NC(COc3cnc4c(ccc5cccnc54)c3)COc3cnc4c(ccc5cccnc54)c3)c2c1		20.2 µM		> 100 µM		> 100 µM		23.4 µM		> 100 µM		55.5 µM		> 100 µM		12.6 µM		> 100 µM		17.7 µM

Structure (SMILES)	GI50 [1]	TGI [1]	GI50 [2]	TGI [2]	GI50 [3]	TGI [3]	GI50 [4]	TGI [4]	GI50 [5]	TGI [5]	GI50 [6]	TGI [6]	GI50 [7]	TGI [7]	GI50 [8]	TGI [8]	GI50 [9]	TGI [9]	GI50 [10]	TGI [10]
N=C(N)SCCON1C(=O)c2ccccc2C1=O		> 100 µM		> 100 µM		> 100 µM		> 100 µM		> 100 µM		> 100 µM		> 100 µM		> 100 µM		> 100 µM		> 100 µM
CC(=O)C(C(C)=O)=C1CCCC(O)O1 (stereo unspecified)		> 100 µM		> 100 µM		> 100 µM		> 100 µM		> 100 µM		> 100 µM		> 100 µM		> 100 µM		> 100 µM		> 100 µM
Cc1ccc(C)n2c1nc1ccc3ccccc3c12		> 100 µM		> 100 µM		> 100 µM		> 100 µM		> 100 µM		> 100 µM		> 100 µM		> 100 µM		> 100 µM		> 100 µM
COC(=O)/C=C/c1ccccc1N=[S@](C)(=O)c1ccc(C)cc1		61.3 µM		16.2 µM		> 100 µM		> 100 µM		> 100 µM		76.9 µM		> 100 µM		44.2 µM		72.5 µM		> 100 µM
Cc1ccc([N+](=O)[O-])cc1S(=O)(=O)Nc1ccc(C2=NN(c3ccc([N+](=O)[O-])cc3[N+](=O)[O-])C(c3ccccc3)C2)cc1 (stereo unspecified)		> 100 µM		47.4 µM		31.3 µM		38.9 µM		31.5 µM		35.9 µM		50.1 µM		> 100 µM		49.4 µM		26.3 µM
CC(C)(CO)CNc1cc(=O)[nH]c(N)n1		> 100 µM		> 100 µM		> 100 µM		> 100 µM		> 100 µM		> 100 µM		> 100 µM		> 100 µM		> 100 µM		> 100 µM
COc1ccc(N2C=Nn3c(nc4sc(C)c(C)c4c3=O)C2)cc1		> 100 µM		> 100 µM		> 100 µM		> 100 µM		> 100 µM		> 100 µM		> 100 µM		> 100 µM		> 100 µM		> 100 µM
CC(C)Oc1c(-c2c(OC(C)C)c(=O)c2=O)c(=O)c1=O		> 71.8 µM		> 41.6 µM		> 100 µM		> 100 µM		> 75.6 µM		> 100 µM		> 100 µM		> 100 µM		26.8 µM		> 41.8 µM
CCOC(=O)/C(=C\NCC(O)c1ccccc1)c1nc2ccccc2[nH]1 (stereo unspecified)		29.4 µM		51.8 µM		94.4 µM		> 100 µM		59.6 µM		67 µM		83.8 µM		33.3 µM		67.9 µM		69 µM
CC(C)/C(Cl)=N/OC(=O)Nc1ccc(F)c(Cl)c1		2.97 µM		23.4 µM		30.4 µM		30.5 µM		27.8 µM		29.8 µM		34.6 µM		> 20.2 µM		29.3 µM		22.4 µM
Cc1cn(C2CC(n3cc(Cn4cc(F)c(=O)[nH]c4=O)nn3)C(CO)O2)c(=O)[nH]c1=O (stereo unspecified)		> 100 µM		> 100 µM		> 100 µM		> 100 µM		> 100 µM		> 100 µM		> 100 µM		> 100 µM		> 100 µM		> 100 µM
O=C(Nc1ccccc1)O/N=C(/CBr)c1ccccc1		51.3 µM		21.5 µM		32.4 µM		38.1 µM		26.2 µM		70.1 µM		36.1 µM		> 100 µM		> 100 µM		40 µM
Cc1ccc(N=Nc2c(C)nn(C(=O)CC(=O)Nc3ccccc3)c2C)cc1C		> 100 µM		> 100 µM		> 100 µM		> 100 µM		> 100 µM		> 100 µM		> 100 µM		> 100 µM		> 100 µM		> 100 µM
COc1cc2c(cc1C[N+](C)(C)CSc1ccccc1)-c1ccccc1CC2		17.2 µM		12.5 µM		28.6 µM		21.2 µM		14.4 µM		25.5 µM		24.3 µM		14.3 µM		> 100 µM		16.4 µM
CC(=O)NNc1nc(C)c(C(/C=C/c2ccc3c(c2)OCO3)=N/Nc2ccccc2)s1		> 100 µM		> 100 µM		> 100 µM		> 100 µM		> 100 µM		> 100 µM		> 100 µM		> 100 µM		> 100 µM		> 100 µM

Source: PubChem BioAssay (NCI)
